How the values were obtained:
[1] = system: inhibitory neurons distributed in laminas I and II; assay: Calretinin immunostaining of spinal cord tissue injected with Evans blue; type: in vivo, white rat; details: laminas I and II (FIG. 4G, FIGS. 5G to 5I)
[2] = system: animal model of SNL neuropathic pain; assay: von Frey filament test (mechanical allodynia) in spinal nerve ligation (SNL) model of neuropathic pain; type: in vivo, Sprague-Dawley rats
Procedure: 5-week-old male SD white rats (Sprague-Dawley rats, 150 to 180 g) were purchased and were kept in an environment where each of night and day was continuously kept for 12 hours, and the temperature was maintained at 22±2° C. Further, water and feed were freely available for rats, and the rats were fed three or less per cage. At 6 weeks of age after adapted in an experimental environment for 7 days before the experiment, the rats responsive to stimulation of 8 g or more of von Frey filament were only selected, and then the spinal nerve ligation (SNL) procedure was performed thereon, inducing neuropathic pain (NPP). More specifically, after general anesthesia with respiratory anesthesia with isoflurane, the left lumbar (L6) […] was carefully removed for differentiation of the L4 and L5 spinal nerves (FIGS. 1A to 1B), and then the L5 spinal nerve was ligated with a silk suture thread (3-0), and the wound was sutured to prepare an experimental animal model of SNL neuropathic pain (FIGS. 1C to 1D). The analgesic effect of Evans blue of the present disclosure was confirmed by measuring mechanical hyperalgesia using the animal model of neuropathic pain. The von Frey filament test (test for mechanical allodynia) is a method for measuring the degree of mechanical allodynia after animal pain modeling. The rats were placed in an acrylic box disposed on a wire mesh test bench with a mesh size of 2×2 mm and adapted for at least 15 minutes. After the rats became quiet in movement, the pain threshold values (g) of the rat were evaluated using the von Frey filaments (Stoelting, USA) having a thickness of 0.4, 0.6, 1, 2, 4, 6, 8, and 15 g. […] The central part thereof was stimulated with von Frey filaments. When there was a positive reaction, stimulation was performed with weak filaments. When there was no positive reaction, stimulation was performed with strong filaments. As a result, the reduction of the pain threshold for the von Frey filament test on the seventh day after the pain model surgery was the maximum. From the seventh day when the reduction of the pain threshold for the von Frey filament test after the pain model surgery was the maximum, Evans blue (EB) was injected intrathecal injection with a Hamilton syringe, and the hind paw of the […] was stimulated with the von Frey filament to the measure minimum pain threshold. Changes in pain threshold were measured after 2 hours, 1 day, 2 days, 3 days, 5 days, and 7 days. At this time, 10 μl physiological saline was administered to the control group, and Evans blue was administered at various concentrations (5, 15, and 50 μg/10 μl).

[3] = system: microglia cells present in the dorsal horn of the spinal cord; assay: Iba-1 immunostaining of spinal cord tissue injected with Evans blue; type: in vivo, white rat; details: laminas I to III (FIGS. 6A to 6C)
astrocytes = assay: GFAP immunostaining of spinal cord tissue injected with Evans blue; type: in vivo, white rat; details: FIGS. 6D to 6F
[4] = system: excitatory neurons located in the dorsal horn of the spinal cord; assay: vGluT2 immunostaining of spinal cord tissue injected with Evans blue; type: in vivo, white rat; details: dorsal horn laminas I and II (FIGS. 5D to 5F)
[5] = target: T1, vesicular nucleotide transporter (VNUT) of the dorsal root ganglia (Rattus norvegicus, UniProt P0DX21); assay: Immunostaining with VNUT antibody after in vivo Evans blue injection, confocal microscopy; parameters: species or system white rat; details: dorsal root ganglia: axon, axon terminal and cell body; 2nd day after injection (FIGS. 4A to 4C)
T1 construct: examine the expression of VNUT in the dorsal root ganglia and dorsal horn of the spinal cord; from tissue; host or cells: rat dorsal root ganglia and spinal cord (L4 to L6) sections after in vivo Evans blue injection
T1 sequence (P0DX21 1-447): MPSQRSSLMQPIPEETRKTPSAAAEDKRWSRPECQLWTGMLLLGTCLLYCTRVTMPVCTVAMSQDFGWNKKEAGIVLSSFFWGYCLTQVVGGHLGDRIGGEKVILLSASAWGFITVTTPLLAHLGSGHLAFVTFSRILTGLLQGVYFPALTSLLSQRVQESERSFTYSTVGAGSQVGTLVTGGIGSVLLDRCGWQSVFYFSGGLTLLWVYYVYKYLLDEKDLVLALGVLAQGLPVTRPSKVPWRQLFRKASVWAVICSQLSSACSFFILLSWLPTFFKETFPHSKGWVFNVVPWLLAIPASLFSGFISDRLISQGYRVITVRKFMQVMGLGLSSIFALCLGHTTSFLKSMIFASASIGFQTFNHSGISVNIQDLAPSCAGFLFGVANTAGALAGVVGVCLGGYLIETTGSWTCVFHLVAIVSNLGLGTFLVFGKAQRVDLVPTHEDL
Procedure: To verify targeting VNUT of the dorsal root ganglia and dorsal horn of the spinal cord by Evans blue in vivo, VNUT was immune-stained, and Evans blue was administered in vivo to confirm whether it was targeted.
(§1) Specifically, it was immune-stained with VNUT antibody (green) to examine the expression of VNUT in the dorsal root ganglia and dorsal horn of the spinal cord. Evans blue was injected on the 7th day after the pain model surgery. On 2nd day after the injection of Evans blue, the white rat was anesthetized by intraperitoneal injection of sodium pentobarbital (100 mg/Kg). Then the phosphate buffer solution (PBS, pH 7.4) was intracardiac-perfused to entirely remove the blood, followed by perfusion with 4% paraformaldehyde to fix the result. Then, the spinal cord sites (L4 to L6) were carefully taken out, post-fixed in the same fixative overnight, and immersed in a 30% sucrose solution. Then, the tissues obtained by frozen sectioning of the spinal cord at […] were subjected to the normal serum blocking and then incubated overnight at 4° C. with VNUT (1:500; ABN 83; milipore) antibody. The next day, the result was washed with PBS and incubated with the cy2-conjugated secondary antibody (1:400) for 2 hours, and then the nuclear thereof was stained with DAPI. The tissues were attached to a slide glass and photographed using a confocal microscope (Leica, TCS SP8).

[6] = system: neurons of the dorsal horn in the spinal cord; assay: NeuN immunostaining of spinal cord tissue injected with Evans blue; type: in vivo, white rat; details: dorsal horn of the spinal cord (FIGS. 5A to 5C)
Procedure: as §1
To determine whether Evans Blue targeted the neurons of the dorsal horn in the spinal cord, the spinal cord tissue injected with Evans blue was stained with NeuN, a marker for identifying neurons. […]

overlap of Evans blue signal with VNUT expression [5]: overlaps
Structure (SMILES): Cc1cc(-c2ccc(/N=N/c3ccc4c(S(=O)(=O)O)cc(S(=O)(=O)O)c(N)c4c3O)c(C)c2)ccc1/N=N/c1ccc2c(S(=O)(=O)O)cc(S(=O)(=O)O)c(N)c2c1O [Evans blue]
overlap of calretinin (inhibitory neurons) with Evans blue [1]: did not overlap
intensity of pain (pain threshold) than before Evans blue treatment (0D) ([2]; 5 μg intrathecal, on the 2nd and 3rd day (p<0.05)): significant increase
intensity of pain (pain threshold) than before Evans blue treatment (0D) ([2]; 15 μg intrathecal, after 2 hours and the 1st day (p<0.05)): significant increase
intensity of pain (pain threshold) than before Evans blue treatment (0D) ([2]; 50 μg intrathecal, after 2 hours and the 1st day (p<0.01), the 2nd day (p<0.001), the 3rd day, the 5th day (p<0.05)): significant increase
intensity of pain (pain threshold) compared to the control group treated with physiological saline ([2]; 50 μg intrathecal, on the 2nd day (p<0.001)): significant increase
analgesic effect on pain (pain threshold, von Frey filament test) ([2]; SNL rats, intrathecal injection on day 7 after surgery, 5, 15 and 50 μg/10 μl, versus control group treated only with physiological saline): overall increased meaningfully
time of peak analgesic effect ([2]; after intrathecal injection, gradually decreased thereafter): 3 days
overlap of Iba-1 (microglial cell marker) signal with Evans blue signal [3]: partially overlapped
overlap of GFAP (astrocyte marker) signal with Evans blue (astrocytes): did not overlap
targeting of excitatory neurons (vGluT2 stained around cell bodies of neurons targeted by Evans blue) [4]: targeted excitatory neurons
overlap of NeuN (neuron marker) signals with Evans blue [6]: most signals of NeuN, which is a neuron marker, overlapped
